According to ChEMBL document CHEMBL5233256, “Flavaglines as natural products targeting eIF4A and prohibitins: From traditional Chinese medicine to antiviral activity against coronaviruses” (Eur J Med Chem, 2020):

What was measured:
Hepatitis C virus = assay: Antiviral activity against HCV infected in human Huh-7.5.1 cells assessed as reduction in viral infection incubated for 48 hrs; type: functional, organism-based, Hepacivirus hominis; details: Huh-7.5.1, 48 h
Poliovirus 1 = assay: Antiviral activity against human poliovirus 1 infected in human MRC5 cells incubated for 1 hr by crystal violet staining based plaque assay; type: functional, organism-based; details: Enterovirus C, MRC5, 1 h
[1] = system: Middle East respiratory syndrome-related coronavirus; assay: Antiviral activity against MERS-COV infected in human MRC5 cells incubated for 1 hr by crystal violet staining based plaque assay; type: functional, organism-based
Human coronavirus 229E = assay: Antiviral activity against hCoV-229E infected in human MRC5 cells incubated for 1 hr by crystal violet staining based plaque assay; type: functional, organism-based
SARS-CoV-2 = assay: Antiviral activity against SARS-CoV-2 USA_WA1/2020 infected in African green monkey Vero E6 cells assessed as reduction in virus replication preincubated with cell for 2 hrs followed by viral infection for 1 hr and measured after 48 hrs by RT-qPCR method; type: functional; details: Severe acute respiratory syndrome coronavirus 2, USA_WA1/2020, Vero C1008; time 51 hrs

SMILES: COc1ccc([C@@]23Oc4cc(OC)cc(OC)c4[C@]2(O)c2nc4n(c(=O)c2[C@H]3c2ccccc2)CCC4)cc1
- EC50 (Hepatitis C virus): 0.04 nM

SMILES: COc1ccc([C@@]23Oc4cc(OC)cc(OC)c4[C@]2(O)[C@H](O)[C@H](C(=O)N(C)C)[C@H]3c2ccccc2)cc1 [ROCAGLAMIDE]
- EC50 (Hepatitis C virus): 4 nM

SMILES: COC(=O)[C@H]1[C@@H](O)[C@@]2(O)c3c(OC)cc(O[C@@H]4O[C@@H]([C@H](O)CO)CO[C@H]4OC)cc3O[C@@]2(c2ccc(OC)cc2)[C@@H]1c1ccccc1 [SILVESTROL]
- EC50 (Poliovirus 1): 20 nM
- EC50 ([1]; MRC5, 1 h): 1.3 nM
- EC90 ([1]; MRC5, time 1 hrs): 27 nM
- EC50 (Human coronavirus 229E; MRC5, 1 h): 3 nM
- EC90 (Human coronavirus 229E; MRC5, time 1 hrs): 12 nM

SMILES: COc1cc2c(c(OC)n1)[C@]1(O)[C@H](O)[C@H](CN(C)C)[C@@H](c3ccccc3)[C@]1(c1ccc(C#N)cc1)O2 [ZOTATIFIN]
- IC90 (SARS-CoV-2): 37 nM
